Measurements: US9290487B2, “Pharmaceutical composition for treating diabetes” (Ajinomoto Co., Inc., priority 2011, dated 2016)
pEC50: −log10 of the molar value.

Columns and labels:
[1] = biological target: human GYS1 (glycogen synthase) (Homo sapiens (Human), UniProt P13807); assay: Measurement of glycogen synthase activity (coupled pyruvate kinase/lactate dehydrogenase assay, absorbance at 340 nm); type: biochemical; details: concentration inducing relative activity of 50% (100% = Ex. 1 of WO/2011/058154 at 10 μM); incubation at 37° C. for 20 minutes (Examples 11 to 75)
Sequence of human GYS1 (glycogen synthase) (P13807 whole entry): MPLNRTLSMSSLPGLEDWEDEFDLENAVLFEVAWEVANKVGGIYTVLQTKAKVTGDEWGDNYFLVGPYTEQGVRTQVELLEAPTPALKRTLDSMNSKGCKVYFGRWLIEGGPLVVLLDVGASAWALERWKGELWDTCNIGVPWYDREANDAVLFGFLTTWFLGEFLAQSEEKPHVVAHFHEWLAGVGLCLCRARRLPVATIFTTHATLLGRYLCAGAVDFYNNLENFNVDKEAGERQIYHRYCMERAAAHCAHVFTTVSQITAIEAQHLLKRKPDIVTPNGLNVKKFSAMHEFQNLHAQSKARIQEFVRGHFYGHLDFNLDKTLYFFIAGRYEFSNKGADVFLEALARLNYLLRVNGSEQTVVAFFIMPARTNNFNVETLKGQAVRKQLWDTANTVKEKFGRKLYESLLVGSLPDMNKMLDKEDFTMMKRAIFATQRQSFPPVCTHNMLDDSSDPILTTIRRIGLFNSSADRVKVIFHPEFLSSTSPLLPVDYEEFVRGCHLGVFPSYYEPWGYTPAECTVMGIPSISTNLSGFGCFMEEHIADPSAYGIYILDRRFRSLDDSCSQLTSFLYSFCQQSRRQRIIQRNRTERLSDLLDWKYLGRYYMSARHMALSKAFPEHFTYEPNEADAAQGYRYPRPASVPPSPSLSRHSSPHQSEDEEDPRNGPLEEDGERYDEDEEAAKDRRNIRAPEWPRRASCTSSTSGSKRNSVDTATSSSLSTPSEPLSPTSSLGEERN
In short: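 GYS1 expressed in HEK293T cells, with the lysate pellet used as enzyme. Reaction with glucose-6-phosphate, glycogen, UDP-glucose, PEP and NADH, pH 7.3, incubated 30° C for 25 min or 37° C for 20 min, then A340 read. EC50 relative to a reference activator at 10 μM set as 100%.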

PPAR-α = PPAR-α (Homo sapiens (Human), UniProt Q07869); assay: Measurement of PPAR-α activity (GAL4 luciferase reporter assay in CV-1 cells); type: cell-based; details: 100(A/B), B = compound in WO/2011/058154 at 100 μM, test concentrations not stated for these examples, read-out: PPARα relative fold induction (%)
Sequence of PPAR-α (Q07869 167-468): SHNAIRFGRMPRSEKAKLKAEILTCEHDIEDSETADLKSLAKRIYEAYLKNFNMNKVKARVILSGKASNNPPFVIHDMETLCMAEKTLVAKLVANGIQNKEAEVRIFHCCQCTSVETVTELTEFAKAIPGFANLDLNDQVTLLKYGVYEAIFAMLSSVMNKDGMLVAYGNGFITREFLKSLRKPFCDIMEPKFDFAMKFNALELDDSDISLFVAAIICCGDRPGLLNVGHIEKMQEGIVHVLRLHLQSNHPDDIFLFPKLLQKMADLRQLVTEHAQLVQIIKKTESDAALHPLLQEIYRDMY
Procedure: The PPAR-α activity was measured according to the published article (THE JOURNAL OF BIOLOGICAL CHEMISTRY Vol. 270, No. 22, 12953-12956, 1995).
Plasmids used for the PPAR-α activity measurement were constructed as follows. A luciferase expression plasmid (UASx5-TK-Luc) used was obtained by introducing a sequence, in which five yeast GAL4-binding sequences are linked in tandem, upstream of a thymidine kinase promoter of pTAL-Luc (Takara Bio Inc., 6252-1). A PPAR-α receptor expression plasmid (hGR-GAL4-hPPARα) used was obtained by introducing a human GR N-terminal region (1-76 aa), a yeast GAL4 DNA-binding region (1-147 aa), and a PPARα ligand-binding region (167-468 aa) between a Not I site and a Sal I site of pExchange-1 Core Vector (Invitrogen Corporation, 211176).
A reporter assay was conducted by the following method using Cercopithecus aethiops kidney-derived CV-1 cells. The CV-1 cells were seeded in a 96-well plate (Thermo Fisher Scientific Inc., 4938) at 2×10^4 cells/well using a 10% FBS-containing DMEM (Nacalai Tesque, Inc., 0845874) medium. After culturing under conditions of 37° C. and 5% CO2 for 2 hours, the plasmids were transfected. Lipofectamine LTX (Invitrogen Corporation, 15338-100) was used for the transfection according to the attached manual. The plasmid solution was prepared by adding a mixture solution of the luciferase expression plasmid and the PPAR-α receptor expression plasmid to OPTI-MEM I (Invitrogen Corporation, 11058-021). After the transfection was conducted, the test compound was added, and cultured at 37° C. in the presence of 5% CO2 for 18 to 20 hours. After the culturing was completed, the luciferase activity was measured with Luminescensor JNR (ATTO) using Bright-Glo (Promega Corporation, E2620).
The fold induction of PPAR-α by the test compounds was calculated by the following method. For the compounds of Examples 1, 4, 5, 7, and 9, PPAR-α relative fold induction (%) was defined as 100 (A/B), where A represents the maximum value of PPAR-α activities with the test compound at 0.3 μM, 1 μM, 3 μM, 10 μM, 30 μM, and 100 μM, and B represents the PPAR-α activity with the compound in WO/2011/058154 at 100 μM. For the compounds of Examples 11, 15, 19, 22, 26, and 32, PPAR-α relative fold induction (%) was defined as 100 (A/B), where A represents the maximum value of PPAR-α activities with the test compound at 3 μM, 10 μM, 30 μM, and 100 μM, and B represents the PPAR-α activity with the compound in WO/2011/058154 at 100 μM.

SMILES	pEC50 [1]	Emax (PPAR-α)
O=C(O)[C@@H]1CCCN1C(=O)c1cccc(COc2ccc(-c3cc(F)c(F)cc3/C=N/O)cc2)c1 [compound of Ex. 52, 1-{3-[({4′,5′-difluoro-2′-[(hydroxyimino)methyl]biphenyl-4-yl}oxy)methyl]benzoyl}-L-proline]	7.21	18%
N#Cc1coc2c(-c3ccc(OCc4cccc(C(=O)N5CCC[C@H]5C(=O)O)c4)cc3)cc(F)c(F)c12 [compound of Ex. 53]	6.21	15%
O=C(O)[C@@H]1CCCN1C(=O)c1cccc(COc2ccc(-c3cc(F)c(F)c4c(CO)coc34)cc2)c1 [compound of Ex. 56, 1-[3-({4-[4,5-difluoro-3-(hydroxymethyl)-1-benzofuran-7-yl]phenoxy}methyl)benzoyl]-L-proline]	7.36	6.4%
O=C(O)[C@@H]1CCCN1C(=O)c1cccc(COc2ccc(-c3cc(F)c(F)c4cc(/C=N/O)oc34)cc2)c1 [compound of Ex. 58, 1-{3-[(4-{4,5-difluoro-2-[(hydroxyimino)methyl]-1-benzofuran-7-yl}phenoxy)methyl]benzoyl}-L-proline]	7.35	19%
N#CCc1cc(F)c(F)cc1-c1ccc(OCc2cccc(C(=O)N3CCC[C@H]3C(=O)O)c2)cc1 [compound of Ex. 61, 1-[3-({[2′-(cyanomethyl)-4′,5′-difluorobiphenyl-4-yl]oxy}methyl)benzoyl]-L-proline]	6.10	10%
O=Cc1cc2c(F)c(F)cc(-c3ccc(OCc4cccc(C(=O)N5CCC[C@H]5C(=O)O)c4)cc3)c2s1 [compound of Ex. 65, 1-(3-{[4-(4,5-difluoro-2-formyl-1-benzothien-7-yl)phenoxy]methyl}benzoyl)-L-proline]	6.52	11%
N#CCCSc1cc(F)c(F)cc1-c1ccc(OCc2cccc(C(=O)N3CCC[C@H]3C(=O)O)c2)cc1 [compound of Ex. 72, 1-{3-[({2′-[(2-cyanoethyl)thio]-4′,5′-difluorobiphenyl-4-yl}oxy)methyl]benzoyl}-L-proline]	6.72	15%

The next lines start with the values.

pEC50 [1]	Emax (PPAR-α)	SMILES
7.13	18%	O=C(O)[C@@H]1CCCN1C(=O)c1cccc(COc2ccc(-c3cc(F)c(F)c4cc(CO)sc34)cc2)c1 [compound of Ex. 66, 1-[3-({4-[4,5-difluoro-2-(hydroxymethyl)-1-benzothien-7-yl]phenoxy}methyl)benzoyl]-L-proline]
6.89	8.6%	O=C(O)[C@@H]1CCCN1C(=O)c1cccc(COc2ccc(-c3cc(F)c(F)cc3SCCO)cc2)c1 [compound of Ex. 69, 1-{3-[({4′,5′-difluoro-2′-[(2-hydroxyethyl)thio]biphenyl-4-yl}oxy)methyl]benzoyl}-L-proline]
6.70	7.9%	O=C(O)[C@@H]1CCCN1C(=O)c1cccc(COc2ccc(-c3cc(F)c(F)c4cc(CO)oc34)cc2)c1 [compound of Ex. 70, 1-[3-({4-[4,5-difluoro-2-(hydroxymethyl)-1-benzofuran-7-yl]phenoxy}methyl)benzoyl]-L-proline]
7.42	8.6%	N#CCSc1cc(F)c(F)cc1-c1ccc(OCc2cccc(C(=O)N3CCC[C@H]3C(=O)O)c2)cc1 [compound of Ex. 71, 1-{3-[({2′-[(cyanomethyl)thio]-4′,5′-difluorobiphenyl-4-yl}oxy)methyl]benzoyl}-L-proline]
